Laboratory results reported in US6288110A, “Pharmaceutical compositions comprising disulfiram” (Yeda Research and Development Co Ltd., priority 1998, dated 2001).
“Also recorded” adds a separate entry of the source.

What was measured:
3T3 fibroblasts = experiment: Cell rounding, 3T3 fibroblasts; type: cell-based; settings: 1 μM
interleukin-1 = settings: U.S. Pat. No. 4,870,101; cited from earlier work
intestinal cancer = settings: azoxymethane, rats; cited from earlier work
other tissues = experiment: Tissue damage on systemic administration; settings: 25-60 μg/mouse systemically
rats = settings: 0.05% in diet for 2 years; cited from earlier work
normal mice = settings: cited from earlier work
[1] = test system: bovine aortic vascular smooth muscle cells (BSMC); experiment: DNA synthesis (3H-thymidine incorporation) in BSMC; type: cell-based
Method: Bovine aortic vascular smooth muscle cells (BSMC) were cultured in low glucose DMEM (1 g/liter) supplemented with 10% FCS (HyClone, Logan, Utah) and GPS.
Bovine capillary endothelial cells (BCE) and bovine aortic BSMC were plated in 24-well plates (6000 cells per well) in 500 μl DMEM medium supplemented with 10% Colorado calf serum (CCS) (GIBCO, USA) and GPS. After 24 hours, medium was changed to starvation medium (2% CCS, 0.5% BSA, GPS) for 24 hours. ^3 H-methyl-thymidine (5 μCi/ml) was added for the last 6 hours. DNA synthesis assays were performed as described above, in triplicates. DNA synthesis assays in BALB/MK keratinocytes were performed as previously described (Marikovsky, 1995).-DNA synthesis assays were performed in triplicates.
Disulfiram was prepared in 0.1 mM stock solutions in DMSO. […] Inhibition was calculated as percentage of DNA synthesis of control.
To determine whether disulfiram acts directly on endothelial cells rather than on accessory cells such as macrophages and mast cells that can be responsible for the development of an angiogenic response in vivo, the effect of the drug on the growth of BCE cells was examined in vitro as described in section (c) of "Materials and Methods" above. DNA synthesis in BCE cells was measured in presence of increasing concentrations of disulfiram incubated for 24 hours with the cells. […]

oxidases = settings: cited from earlier work
BCE cells = experiment: Apoptosis by FACS (DNA content) in BCE cells; type: cell-based, bovine; settings: 0.5-5 μM, 20 hours
Method: Cells were cultured in plastic tissue culture dishes for 48 hours in presence of growth media as described above, until reaching 40-50% confluency. Disulfiram was then added to the cells for 20 hours. The cells were removed from the plates by EDTA-trypsin and fixed in ice-cold 70% ethanol (BioLab, Israel) in -20° C. for 2 hr to overnight. The fixed cells (2-5×10^6) were washed once with HEPES-buffered saline (HBSS) and incubated with 0.5 mg/ml RNAseH (Boehringer Mannheim). Afterwards the cells were resuspended in HBSS containing 50 μg/ml propidium iodide (Sigma) and subsequently analyzed on a FACSort flow cytometer (Beckton Dickinson Inc.) using Lysis II software. For the analysis, 10,000 cells were examined from each sample. The percentage of the hypodiploid cells was measured (Darzynkiewicz, 1992; Afanasyev, 1993). The cell cycle histogram was divided into four regions according to the cell cycle phases: Ap, apoptotic cells; G1, diploid cells; S, intermediate cells; and G2 /M, tetraploid cells.
Capillary endothelial cells were grown during 48 hours to 40-50% confluency and disulfiram was then added to the cells for 20 hours as described in section (g) of "Materials and Methods" above. […] The abundance of apoptotic cells was dose-dependent.

dopamine-β-hydroxylases = settings: cited from earlier work
cisplatin nephrotoxicity = settings: humans; cited from earlier work
superoxide dismutase = settings: in vivo; cited from earlier work
murine leukemia = settings: 3 mg/mouse; cited from earlier work
[2] = test system: Lewis lung (D122) metastasis in the lungs; experiment: Lewis lung carcinoma metastasis, i.v. model; type: in vivo, C57/BL mice
Source text: The Lewis lung carcinoma (3LL), which originated spontaneously in a C57/BL/6J (H-2^b) mouse, is a malignant tumor that produces spontaneous lung metastases. The metastatic clone D122, kindly provided by Prof. Lea Eisenbach (Weizmann Institute of Science, Rehovot, Israel), was used herein for tissue culture and for in vivo experiments. The cell cultures were maintained in DMEM supplemented with 10% heat-inactivated FCS, glutamine, antibiotics, sodium pyruvate and nonessential amino acids.
To distinguish between the effect on the migration of the cells from the main tumor and the development of a tumor from a metastatic foci, the i.v. model was used. D122 cells (5×10^5) were injected i.v. to the tail of C57/B1 male mice and after 24 days mice were killed and their lungs weighed. Treatment with disulfiram was started 3 days following the injection of D122 cells. […]
To distinguish between the effect on the migration of the cells from the main tumor and the development of a tumor from a metastatic foci, the i.v. metastastis model was used as described in section (f) of materials and Methods above. D122 cells were injected i.v. to the tail of C57/B1 male mice. Three days after, disulfiram was administered to the mice per os 3 times per week, at concentrations of 13-40 μg/mouse.

[3] = in vivo; cited from earlier work

## CCN(CC)C(=S)SSC(=S)N(CC)CC [disulfiram, Bis(diethylthiocarbamoyl) disulfide]
3T3 fibroblasts
  cell rounding: did not change their shape to the rounded form
interleukin-1
  inhibition of interleukin-1 release: effective to inhibit the release of interleukin-1
Intestinal cancer
  interference with induction of intestinal cancer: interfere with induction of cancer
Other tissues
  damage in other tissues: no evidence for damage in other tissues
rats
  increase of any tumor type: did not increase any tumor type
Normal mice
  toxic dose: 6-10 mg/mouse/day
[1]; 0.5-1 μM disulfiram
  maximal inhibitory activity (DNA synthesis): 80%
[1]; Bos taurus, 1 μM, 4 hours of incubation
  inhibition at 1 µM: 50%
oxidases
  inhibition of oxidases: inhibit
BCE cells
  apoptosis by FACS analysis of DNA content: induced in a dose-dependent manner a sub-diploid apoptotic population; also recorded: appearance of a sub-diploid apoptotic population of cells
  dose dependence of abundance of apoptotic cells (FACS): dose-dependent
dopamine-β-hydroxylases
  inhibition of dopamine-β-hydroxylases: inhibit
Cisplatin nephrotoxicity
  protection against cisplatin nephrotoxicity: did not show any protection
Superoxide dismutase
  inhibition of superoxide dismutase: inhibited superoxide dismutase
Murine leukemia
  potentiation of nitrogen mustard (HN2) cytotoxicity: potentiate
[2]; 13-40 μg, 3 times a week, 24 days, n=6, p=0.023-0.037
  metastasis in the lungs compared with water-fed control (in words): significantly smaller
[2]; 13-40 μg/mouse per os 3 times per week
  inhibition of the development of metastatic foci in the lungs: 83-95%
[2]; 13-40 μg/mouse, 3 times a week, 24 days
  decrease of metastasis to the lungs: 6-19 fold
[3]
  conversion into main metabolite diethyldithiocarbamate (DDC): quickly converted
